Experimental data as given in PubChem BioAssay (NCI).
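Test compounds were applied to cells in 96-well plates for 48 hours at 5 doses. TGI marks complete inhibition of growth.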

Experiments:
Test in all cases: growth of human tumour cells (NCI), 48 h
A549 NSCLC = system: A549 NSCLC
ACHN renal = system: ACHN renal
CAKI-1 renal = system: CAKI-1 renal
CCRF-CEM leukemia = system: CCRF-CEM leukemia
COLO 205 colon = system: COLO 205 colon
DLD-1 colon = system: DLD-1 colon
DMS 114 small cell lung = system: DMS 114 small cell lung
DMS 273 small cell lung = system: DMS 273 small cell lung
EKVX NSCLC = system: EKVX NSCLC
HCC-2998 colon = system: HCC-2998 colon
HCT-116 colon = system: HCT-116 colon
HCT-15 colon = system: HCT-15 colon
HL-60(TB) leukemia = system: HL-60(TB) leukemia
HOP-18 NSCLC = system: HOP-18 NSCLC
HOP-92 NSCLC = system: HOP-92 NSCLC
IGROV1 ovarian = system: IGROV1 ovarian
K-562 leukemia = system: K-562 leukemia
KM12 colon = system: KM12 colon
KM20L2 colon = system: KM20L2 colon
LOX IMVI melanoma = system: LOX IMVI melanoma
LXFL 529 NSCLC = system: LXFL 529 NSCLC
M14 melanoma = system: M14 melanoma
M19-MEL melanoma = system: M19-MEL melanoma
MALME-3M melanoma = system: MALME-3M melanoma
MOLT-4 leukemia = system: MOLT-4 leukemia
NCI-H226 lung = system: NCI-H226 lung
NCI-H23 lung = system: NCI-H23 lung
NCI-H460 lung = system: NCI-H460 lung
OVCAR-4 ovarian = system: OVCAR-4 ovarian
OVCAR-5 ovarian = system: OVCAR-5 ovarian
OVCAR-8 ovarian = system: OVCAR-8 ovarian
RPMI-8226 leukemia = system: RPMI-8226 leukemia
RXF 393 renal = system: RXF 393 renal
SF-268 CNS = system: SF-268 CNS
SF-295 CNS = system: SF-295 CNS
SF-539 CNS = system: SF-539 CNS
SK-MEL-2 melanoma = system: SK-MEL-2 melanoma
SK-MEL-28 melanoma = system: SK-MEL-28 melanoma
SK-MEL-5 melanoma = system: SK-MEL-5 melanoma
SK-OV-3 ovarian = system: SK-OV-3 ovarian
SN12C renal = system: SN12C renal
SNB-19 CNS = system: SNB-19 CNS
SNB-75 CNS = system: SNB-75 CNS
SNB-78 CNS = system: SNB-78 CNS
SR leukemia = system: SR leukemia
SW-620 colon = system: SW-620 colon
TK-10 renal = system: TK-10 renal
U251 CNS = system: U251 CNS
UACC-257 melanoma = system: UACC-257 melanoma
UO-31 renal = system: UO-31 renal
XF 498 CNS = system: XF 498 CNS
786-0 renal = system: 786-0 renal
A498 renal = system: A498 renal
HOP-62 NSCLC = system: HOP-62 NSCLC
HT29 colon = system: HT29 colon
NCI-H522 lung = system: NCI-H522 lung
OVCAR-3 ovarian = system: OVCAR-3 ovarian
RXF-631 renal = system: RXF-631 renal
UACC-62 melanoma = system: UACC-62 melanoma

Measured: TGI

O=C(O)C(Cl)(Cl)Cl
not listed: 786-0 renal | A498 renal | HOP-62 NSCLC | HT29 colon | NCI-H522 lung | OVCAR-3 ovarian | RXF-631 renal | UACC-62 melanoma
> 100 µM: all other assays above

COC(=O)C1CCCC2(C1)OCCO2 (stereo not drawn)
not listed: HL-60(TB) leukemia | XF 498 CNS
> 100 µM: all other assays above
